Experimental data from patent US8946268B2, “Modulators of HEC1 activity and methods therefor” (Taivex Therapeutics, Inc., priority 2010, dated 2015).
pIC50: −log10 of the molar value.

Key:
Assay type in all cases: cell-based
MDA-MB-468 = assay: Antiproliferative activity (MTS assay), MDA-MB-468; details: MDA-MB-468 cells
Experimental: (§1) Antiproliferative effect is expressed as IC50 values in microMolar final concentration.
(§2) Cells were grown at 37° C. in a humidified atmosphere with 5% CO2 and 95% air. Cells were seeded in 96 well tissue culture plates.
(§3) Compound treatment started after overnight incubation of cells (TO). […] Compound was added to the plate in triplicate wells, and the plates were then incubated for 96 hours. DMSO (compounds diluents) was also included and added to the plate in control wells. Cell viability was then determined by MTS assay using CellTiter 96® AQueous non-radioactive cell proliferation assay system (Promega). A plate reader (Molecular Devices, Vmax) was used to read the optical densities, and the results were used to deduce concentration-response curves. […] The results were analyzed using linear regression software (GraphPad Prism 5; GraphPad Software Inc.).
(§4) The GI50 values (growth inhibitory activity) were determined to emphasize on the correction for the cell count at time zero; thus, the % inhibition of test drug were: [1−(T−T0)/(C−T0)]×100; and these value were used to plot the concentration-response curves, and then analyzed with linear regression software (GraphPad Prism 5).

K562 = assay: Antiproliferative activity (MTS assay), K562; details: K562 cells
Experimental: as §1, §2, §3, §4

MDA-MB-231 = assay: Antiproliferative activity (MTS assay), MDA-MB-231; details: MDA-MB-231 cells
Experimental: as §1, §2, §3, §4

Hela = assay: Antiproliferative activity (MTS assay), Hela; details: Hela cells
Experimental: as §1, §2, §3, §4

| SMILES | pIC50 (MDA-MB-468; Homo sapiens, MDA-MB-468, 96 h) | pIC50 (K562; Homo sapiens, K562, 96 h) | pIC50 (MDA-MB-231; Homo sapiens, MDA-MB-231, 96 h) | pIC50 (Hela; Homo sapiens, HeLa, 96 h) | pIC50 (MDA-MB-468; 96 hours) | pIC50 (K562; 96 hours) | pIC50 (MDA-MB-231; 96 hours) | pIC50 (Hela; 96 hours) |
| --- | --- | --- | --- | --- | --- | --- | --- | --- |
| Cc1ccc(-c2nc(NC(=O)c3ccc(C#N)cc3)sc2C)cc1 [Compound 30] | < 5.00 | < 5.00 | < 5.00 | < 5.00 |  |  |  |  |
| COc1cc(-c2csc(NC(=O)c3ccncn3)n2)ccc1O [Compound 48] | < 5.00 | < 5.00 | < 5.00 | < 5.00 |  |  |  |  |
| Cc1cc(C)c(-c2csc(NC(=O)c3ccnc(Cl)c3)n2)c(C)c1 [Compound 81] |  |  |  |  | 6.09 | 6.10 | 6.14 | 6.07 |
| CC(=O)Nc1cc(C)c(-c2csc(NC(=O)c3ccncc3)n2)c(C)c1 [Compound 74] | 5.90 | 5.67 | 5.84 | 5.80 |  |  |  |  |
| COc1cc(C)c(-c2csc(NC(=O)c3cc[n+]([O-])cc3)n2)c(C)c1 [Compound 72] | 5.32 | 5.27 | 5.37 | 5.57 |  |  |  |  |
| Cc1cc(OCC(O)CO)cc(C)c1-c1csc(NC(=O)c2ccncc2)n1 (stereo not drawn) [Compound 97] | 5.51 | 5.04 | 5.08 | 5.49 |  |  |  |  |
| COc1ccc(-c2nc(NC(=O)c3ccccn3)sc2C)cc1 [Compound 16] | < 5.00 | < 5.00 | < 5.00 | < 5.00 |  |  |  |  |
| COc1ccc(-c2csc(NC(=O)c3ccncc3)n2)c(F)c1 [Compound 26] | 5.65 | 5.61 | 5.16 | < 5.00 |  |  |  |  |
| COc1cc(C)c(-c2csc(NC(=O)Nc3ccncc3)n2)c(C)c1 [Compound 67] | 6.11 | 6.09 | 6.24 | < 5.00 |  |  |  |  |
| CC(C)c1cc(C(C)C)c(-c2csc(NC(=O)c3ccncc3)n2)c(C(C)C)c1 [Compound 73] | < 5.00 | < 5.00 | < 5.00 | < 5.00 |  |  |  |  |
| Cc1sc(NC(=O)c2ccc(C#N)cc2)nc1-c1ccccc1 [Compound 38] | 5.47 | < 5.00 | 5.25 | < 5.00 |  |  |  |  |
| COc1ccc(Oc2cc(C)c(-c3csc(NC(=O)c4ccncc4C)n3)c(C)c2)cc1 [Compound 121] | 6.09 | 6.49 | 6.36 | 6.05 |  |  |  |  |
| COc1ccc(CCC(=O)Nc2nc(-c3ccc(OC)cc3F)cs2)cc1 [Compound 22] | 5.38 | < 5.00 | < 5.00 | < 5.00 |  |  |  |  |
| COc1cc(C(=O)Nc2nc(-c3c(C)cc(C)cc3C)cs2)cc(Cl)n1 [Compound 87] | < 5.00 | < 5.00 | < 5.00 | < 5.00 |  |  |  |  |
| COc1cc(C)c(-c2csc(NC(=O)c3cncs3)n2)c(C)c1 [Compound 75] | 5.36 | 5.43 | 5.63 | 5.53 |  |  |  |  |
| Cc1sc(NC(=O)c2cccnc2)nc1-c1ccccc1 [Compound 3] | < 5.00 | < 5.00 | < 5.00 | < 5.00 |  |  |  |  |
| Cc1cc(Cc2ccccc2)cc(C)c1-c1csc(NC(=O)c2ccncc2)n1 [Compound 118] | 6.66 | 6.82 | 6.62 | 6.57 |  |  |  |  |
| Cc1cc(C)c(-c2csc(NC(=O)c3ccncc3F)n2)c(C)c1 [Compound 77] | 5.56 | 5.55 | 5.91 | 5.64 |  |  |  |  |
| Cc1cc(Oc2ccc3c(c2)OCO3)cc(C)c1-c1csc(NC(=O)c2ccncc2)n1 [Compound 101] | 6.89 | 7.30 | 7.15 | 6.96 |  |  |  |  |
| Cc1ccc(-c2csc(NC(=O)c3ccccn3)n2)cc1 [Compound 29] | < 5.00 | < 5.00 | < 5.00 | < 5.00 |  |  |  |  |
| COc1ccc(-c2nc(NC(=O)c3ccc(C#N)cc3)sc2C)cc1 [Compound 39] | < 5.00 | < 5.00 | < 5.00 | < 5.00 |  |  |  |  |
| COc1ccc(S(=O)(=O)c2cc(C)c(-c3csc(NC(=O)c4ccncc4)n3)c(C)c2)cc1 [Compound 129] | 6.57 | 6.72 | 6.70 | 6.57 |  |  |  |  |
| Cc1cc(C)c(-c2csc(NC(=O)c3ccccn3)n2)c(C)n1 [Compound 45] | 5.11 | < 5.00 | < 5.00 | < 5.00 |  |  |  |  |
| Cc1sc(NC(=O)c2ccncc2)nc1-c1ccccc1 [Compound 2] | 5.09 | < 5.00 | < 5.00 | < 5.00 |  |  |  |  |
